This note sets out measurements from PubChem BioAssay (NCI).

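Following 48 hours of exposure in 96-well plates, responses at five concentrations were used to interpolate endpoints linearly. GI50 marks 50% less growth. TGI marks complete inhibition of growth.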

Among the test systems are HT29 colon; K-562 leukemia; NCI-H23 lung; OVCAR-5 ovarian; SF-268 CNS; SK-MEL-2 melanoma; TK-10 renal; OVCAR-8 ovarian; SF-295 CNS.
What all share (assay): NCI-60 cell line screen, 48 h

Take `NC(CCSCCF)C(=O)O` (configuration not stated): the TGI in the assay with HT29 colon, in the assay on K-562 leukemia, in the assay on NCI-H23 lung, in the assay with OVCAR-5 ovarian, in the assay on SF-268 CNS and in the assay on SK-MEL-2 melanoma was > 100 µM in each case. The TGI in the assay with TK-10 renal is > 100 µM.
As to `NC1=CC(=O)C(=O)c2ccccc21`, the GI50 in the assay on HT29 colon was 31.9 µM; in the assay on K-562 leukemia it was 20.6 µM; in the assay with NCI-H23 lung it was 13.2 µM; with OVCAR-5 ovarian, 18.9 µM; in the assay with OVCAR-8 ovarian, 14.8 µM; with SF-268 CNS it was 18.8 µM. For the same compound, the GI50 in the assay with SF-295 CNS was 12.7 µM; in the assay with TK-10 renal, 16.7 µM. Moreover, the TGI is 94.3 µM in the assay on HT29 colon; > 100 µM in the assay on K-562 leukemia; 34.6 µM in the assay on NCI-H23 lung; 41.1 µM with OVCAR-5 ovarian; 47.3 µM with OVCAR-8 ovarian; 62.3 µM with SF-268 CNS. Also, the TGI amounted to 33.4 µM in the assay on SF-295 CNS and 47.5 µM in the assay on TK-10 renal.
In the case of `CCN(CC)CCOc1ccccc1-n1c(C)ccc1-c1ccccc1`, the GI50 with HT29 colon was 6.22 µM; in the assay on K-562 leukemia it was 10.7 µM; in the assay on NCI-H23 lung, 14.2 µM; with OVCAR-5 ovarian, 15.7 µM; with OVCAR-8 ovarian, 16.7 µM; with SF-268 CNS, 15.6 µM. Moreover, the GI50 was 16.3 µM in the assay with SF-295 CNS and 14.5 µM with TK-10 renal. Besides, the TGI with HT29 colon was 20.8 µM; in the assay on K-562 leukemia, 32 µM; in the assay with NCI-H23 lung, 29.9 µM; with OVCAR-5 ovarian it was 30.1 µM; in the assay on OVCAR-8 ovarian, 33.4 µM; with SF-268 CNS it was 30.6 µM. Also, the TGI is 34.2 µM in the assay on SF-295 CNS and 29.2 µM in the assay on TK-10 renal.
On to `CC(C)CCCC(C)[C@H]1CCC2C3CC=C4C[C@@H](OC(=O)CC(CC(=O)[O-])C(=O)[O-])CC[C@]4(C)C3CC[C@@]21C.N.N.[Pt+4]` (some centres not stated), for which the GI50 with HT29 colon, in the assay on K-562 leukemia, in the assay with OVCAR-8 ovarian, with SF-295 CNS and with TK-10 renal was > 100 µM throughout. The TGI in the assay with HT29 colon, in the assay on K-562 leukemia, with OVCAR-8 ovarian, in the assay with SF-295 CNS and with TK-10 renal was > 100 µM each time.
In the case of `OCC(O)C(OC1OC(CO)C(O)C(O)C1O)c1nn(-c2ccc(Cl)cc2)c2nc3cc(Cl)c(Cl)cc3nc12` (configuration not stated), the TGI in the assay with HT29 colon, in the assay with K-562 leukemia, with NCI-H23 lung, with OVCAR-5 ovarian, with OVCAR-8 ovarian and in the assay on SF-268 CNS was > 100 µM throughout. Besides, the TGI in the assay with SF-295 CNS and in the assay with TK-10 renal was > 100 µM in each case.
As for `NC(=S)N/N=C1/C(=O)N(c2ccccc2)C(=O)C1C(=O)Nc1ccccc1` (configuration not stated), the TGI in the assay on HT29 colon, in the assay with NCI-H23 lung, with OVCAR-5 ovarian, with OVCAR-8 ovarian, in the assay on SF-268 CNS and in the assay on SF-295 CNS was > 100 µM each time. Further, the TGI in the assay on SK-MEL-2 melanoma and in the assay with TK-10 renal was > 100 µM in each case.
Take `COc1ccc(C2C(C(=O)O)=C(CO)Oc3cc4c(cc32)OCO4)c(OC)c1` (configuration not stated): the TGI with HT29 colon, with K-562 leukemia, in the assay with NCI-H23 lung, in the assay with OVCAR-8 ovarian, in the assay with SF-295 CNS and in the assay with TK-10 renal was > 100 µM each time.
As to `CCOC(=O)C1=C(Nc2cccc3ccccc23)OCC1=O`, the TGI in the assay on HT29 colon, in the assay on K-562 leukemia, with NCI-H23 lung, in the assay on OVCAR-5 ovarian, in the assay on OVCAR-8 ovarian and in the assay on SF-268 CNS was > 100 µM throughout. Besides, the TGI in the assay on SK-MEL-2 melanoma is > 100 µM.
In the case of `CC1=CC[C@@H]2C(=O)C=CC=C[C@H]12.[C-]#[O+].[C-]#[O+].[C-]#[O+].[Fe]`, the GI50 in the assay with HT29 colon, in the assay on K-562 leukemia, with NCI-H23 lung, with OVCAR-5 ovarian, in the assay on OVCAR-8 ovarian and in the assay on SK-MEL-2 melanoma was > 100 µM each time. In addition, the GI50 with TK-10 renal was > 100 µM. In addition, the TGI in the assay on HT29 colon, in the assay with K-562 leukemia, in the assay on NCI-H23 lung, with OVCAR-5 ovarian, in the assay on OVCAR-8 ovarian and in the assay with SK-MEL-2 melanoma was > 100 µM each time. In the assay with TK-10 renal, the TGI was > 100 µM.
As for `Cc1cccc(/C=N/N=C(\N)NO)n1`, the TGI in the assay with HT29 colon, in the assay with K-562 leukemia, in the assay on NCI-H23 lung, in the assay with OVCAR-8 ovarian, in the assay with SF-268 CNS and with SF-295 CNS was > 100 µM each time. Also, the TGI in the assay with SK-MEL-2 melanoma and with TK-10 renal was > 100 µM throughout.
On to `O=C(/C=C/c1ccco1)N1CCN(Cc2ccccc2)CC1`, for which the TGI in the assay with HT29 colon, in the assay with NCI-H23 lung, with OVCAR-5 ovarian, in the assay on OVCAR-8 ovarian, with SF-268 CNS and with SF-295 CNS was > 100 µM throughout. For the same compound, in the assay on TK-10 renal, the TGI was > 100 µM.
